These molecules were tested on BALB/c mice (assay: In vivo delivery of lipid nanoparticle encapsulating luciferase mRNA (Fluc mRNA), IVIS imaging). Details: Fluc mRNA-LNP (amino lipid:DSPC:CHO-HP:PEG2000-DMG 48:10:40.5:1.5), 75 μL tail vein IV, female BALB/c mice, IVIS 6 hours after injection, whole body.
Method: The amino lipid compound of the present disclosure, a helper lipid, a structural lipid, and a PEG-lipid were separately dissolved in absolute ethanol to prepare respective solutions at concentrations of 20 mg/mL, 10 mg/mL, 20 mg/mL, and 25 mg/mL, respectively. The above four solutions were pipetted at a molar ratio of the amino lipid compound: DSPC:CHO-HP:PEG2000-DMG of 48:10:40.5:1.5, and mixed well to prepare an alcohol phase.
(2) Encapsulation: The water phase and the alcohol phase were injected into a microfluidic chip at a flow rate of water phase:alcohol phase=12 mL/min: 4 mL/min by using a microfluidic preparation instrument (MPE-L2), and encapsulation was carried out at a flow rate of water phase:alcohol phase=9 mL/min: 3 mL/min to obtain mRNA-encapsulating lipid nanoparticle (mRNA-LNP).
(3) Dialysis: The product of step (2) was loaded in a dialysis bag and placed in a Tris Buffer-8% sucrose solution for replacement to remove ingredients such as residual ethanol, unassembled lipids. Dialysis was conducted for 2 h with magnetic stirring at room temperature and under protection from light (dialysate was replaced every 1 hour).
(4) The product of step (3) was sterilized by passing through a 0.22 μm microporous membrane, and then packaged.
Lipid nanoparticle formulations encapsulating Flue mRNA were prepared, with a concentration of Flue mRNA of 0.2 μg/μL, a mass ratio of Flue mRNA to Lipid of 1:10, a particle size of 80-130 nm, and a encapsulation efficiency of 80% or higher.
• Animal preparation: Female BALB/c mice of 6-8 weeks old were selected and raised in an SPF grade breeding room. Animal testing was conducted in strict accordance with the guidelines of national health institutions and animal ethics requirements.
In vivo Delivery: prior to injection of the test LNP formulations, the LNP formulations were gently and repeatedly inverted to thoroughly mix the formulation samples. A corresponding amount of the formulation samples were aspirated with a 1 ml insulin syringe, and the LNP formulations were injected by tail vein injection (IV), with 3 mice in duplicate per formulation. Each mouse was injected with 75 μL of the luciferase mRNA (Flue mRNA)-encapsulating lipid nanoparticle formulation prepared in Experimental Example 1.
6 hours after injection of LNP formulations, mice were injected with 200 μL D-Luciferin luciferase developing substrate (Catalog No. 122799; Manufacturer: Perkin Elmer). After the substrate was injected, the mice were anesthetized by injection of 200 μl of 2.5% avertin, and the injection time of luciferase developing substrate was recorded.
The fluorescence expression intensity induced by the lipid nanoparticle encapsulating luciferase mRNA (Flue mRNA) with a representative amino lipid compound is shown in Table 4, with the amino lipid compound 118 as a control.
`CCCCCCCCOCC(=O)N(CCCCN(C)C)C(CCCCCCCCC(=O)OC(CCCCCC)CCCCCC)CCCCCCCCC(=O)OC(CCCCCC)CCCCCC` [compound 170] was tested, and the “Total flux (fluorescence expression intensity)” value was 2.89E+07.
`CCCCCCC(CCCCCC)OC(=O)CCCCCCCCC(CCCCCCCCC(=O)OC(CCCCCC)CCCCCC)N(CCCCN(C)C)C(=O)CCOCCCC` [compound 171] was tested, and the “Total flux (fluorescence expression intensity)” value was 1.15E+07.
`CCCCCCC(CCCCCC)OC(=O)CCCCCCCCC(CCCCCCCCC(=O)OC(CCCCCC)CCCCCC)N(CCCCN(C)C)C(=O)CCOCCCCC` [compound 172] was tested, and the “Total flux (fluorescence expression intensity)” value was 8.64E+07.
With `CCCCCCOCCC(=O)N(CCCCN(C)C)C(CCCCCCCCC(=O)OC(CCCCCC)CCCCCC)CCCCCCCCC(=O)OC(CCCCCC)CCCCCC` [compound 173] the “Total flux (fluorescence expression intensity)” value was 2.07E+07.
For `CCCCCCCOCCC(=O)N(CCCCN(C)C)C(CCCCCCCCC(=O)OC(CCCCCC)CCCCCC)CCCCCCCCC(=O)OC(CCCCCC)CCCCCC` [compound 174], the “Total flux (fluorescence expression intensity)” value was 9.59E+07.
For `CCCCCCCCOCCC(=O)N(CCCCN(C)C)C(CCCCCCCCC(=O)OC(CCCCCC)CCCCCC)CCCCCCCCC(=O)OC(CCCCCC)CCCCCC` [compound 175], the “Total flux (fluorescence expression intensity)” value was 5.15E+07.
With `CCCCCCC(CCCCCC)OC(=O)CCCCCCCCC(CCCCCCCCC(=O)OC(CCCCCC)CCCCCC)N(CCCCN(C)C)C(=O)CCCOCCCCC` [compound 177] the “Total flux (fluorescence expression intensity)” value was 2.52E+07.
`CCCCCCOCCCC(=O)N(CCCCN(C)C)C(CCCCCCCCC(=O)OC(CCCCCC)CCCCCC)CCCCCCCCC(=O)OC(CCCCCC)CCCCCC` [compound 178] was tested, and the “Total flux (fluorescence expression intensity)” value was 6.68E+07.

Same assay, conditions: Fluc mRNA-LNP, 75 μL tail vein IV, female BALB/c mice, IVIS 6 hours after injection, liver
`CCCCCCCCOCC(=O)N(CCCCN(C)C)C(CCCCCCCCC(=O)OC(CCCCCC)CCCCCC)CCCCCCCCC(=O)OC(CCCCCC)CCCCCC` [compound 170] was tested, and the “Liver (fluorescence expression intensity)” value was 1.34E+07.
For `CCCCCCC(CCCCCC)OC(=O)CCCCCCCCC(CCCCCCCCC(=O)OC(CCCCCC)CCCCCC)N(CCCCN(C)C)C(=O)CCOCCCC` [compound 171], the “Liver (fluorescence expression intensity)” value was 5.33E+06.
For `CCCCCCC(CCCCCC)OC(=O)CCCCCCCCC(CCCCCCCCC(=O)OC(CCCCCC)CCCCCC)N(CCCCN(C)C)C(=O)CCOCCCCC` [compound 172], the “Liver (fluorescence expression intensity)” value was 3.10E+07.
For `CCCCCCOCCC(=O)N(CCCCN(C)C)C(CCCCCCCCC(=O)OC(CCCCCC)CCCCCC)CCCCCCCCC(=O)OC(CCCCCC)CCCCCC` [compound 173], the “Liver (fluorescence expression intensity)” value was 9.15E+06.
`CCCCCCCOCCC(=O)N(CCCCN(C)C)C(CCCCCCCCC(=O)OC(CCCCCC)CCCCCC)CCCCCCCCC(=O)OC(CCCCCC)CCCCCC` [compound 174] was tested, and the “Liver (fluorescence expression intensity)” value was 1.62E+07.
`CCCCCCCCOCCC(=O)N(CCCCN(C)C)C(CCCCCCCCC(=O)OC(CCCCCC)CCCCCC)CCCCCCCCC(=O)OC(CCCCCC)CCCCCC` [compound 175] was tested, and the “Liver (fluorescence expression intensity)” value was 1.57E+07.
For `CCCCCCC(CCCCCC)OC(=O)CCCCCCCCC(CCCCCCCCC(=O)OC(CCCCCC)CCCCCC)N(CCCCN(C)C)C(=O)CCCOCCCCC` [compound 177], the “Liver (fluorescence expression intensity)” value was 5.04E+06.
For `CCCCCCOCCCC(=O)N(CCCCN(C)C)C(CCCCCCCCC(=O)OC(CCCCCC)CCCCCC)CCCCCCCCC(=O)OC(CCCCCC)CCCCCC` [compound 178], the “Liver (fluorescence expression intensity)” value was 1.15E+07.

Same assay, conditions: Fluc mRNA-LNP, 75 μL tail vein IV, female BALB/c mice, IVIS 6 hours after injection, spleen
In the case of `CCCCCCCCOCC(=O)N(CCCCN(C)C)C(CCCCCCCCC(=O)OC(CCCCCC)CCCCCC)CCCCCCCCC(=O)OC(CCCCCC)CCCCCC` [compound 170], the “Spleen (fluorescence expression intensity)” value is reported as 1.07E+07.
`CCCCCCC(CCCCCC)OC(=O)CCCCCCCCC(CCCCCCCCC(=O)OC(CCCCCC)CCCCCC)N(CCCCN(C)C)C(=O)CCOCCCC` [compound 171] was tested, and the “Spleen (fluorescence expression intensity)” value was 3.97E+06.
In the case of `CCCCCCC(CCCCCC)OC(=O)CCCCCCCCC(CCCCCCCCC(=O)OC(CCCCCC)CCCCCC)N(CCCCN(C)C)C(=O)CCOCCCCC` [compound 172], the “Spleen (fluorescence expression intensity)” value is reported as 9.69E+06.
In the case of `CCCCCCOCCC(=O)N(CCCCN(C)C)C(CCCCCCCCC(=O)OC(CCCCCC)CCCCCC)CCCCCCCCC(=O)OC(CCCCCC)CCCCCC` [compound 173], the “Spleen (fluorescence expression intensity)” value is reported as 8.03E+06.
In the case of `CCCCCCCOCCC(=O)N(CCCCN(C)C)C(CCCCCCCCC(=O)OC(CCCCCC)CCCCCC)CCCCCCCCC(=O)OC(CCCCCC)CCCCCC` [compound 174], the “Spleen (fluorescence expression intensity)” value is reported as 7.28E+06.
In the case of `CCCCCCCCOCCC(=O)N(CCCCN(C)C)C(CCCCCCCCC(=O)OC(CCCCCC)CCCCCC)CCCCCCCCC(=O)OC(CCCCCC)CCCCCC` [compound 175], the “Spleen (fluorescence expression intensity)” value is reported as 1.21E+07.
`CCCCCCC(CCCCCC)OC(=O)CCCCCCCCC(CCCCCCCCC(=O)OC(CCCCCC)CCCCCC)N(CCCCN(C)C)C(=O)CCCOCCCCC` [compound 177] was tested, and the “Spleen (fluorescence expression intensity)” value was 3.23E+06.
For `CCCCCCOCCCC(=O)N(CCCCN(C)C)C(CCCCCCCCC(=O)OC(CCCCCC)CCCCCC)CCCCCCCCC(=O)OC(CCCCCC)CCCCCC` [compound 178], the “Spleen (fluorescence expression intensity)” value was 3.95E+06.

Same assay, conditions: Fluc mRNA-LNP, tail vein IV, BALB/c mice, 6 hours
In the case of `CCCCCCCCOCC(=O)N(CCCCN(C)C)C(CCCCCCCCC(=O)OC(CCCCCC)CCCCCC)CCCCCCCCC(=O)OC(CCCCCC)CCCCCC` [compound 170], the “(Spleen/Total Flux) * 100%” value is reported as 37.02%.
In the case of `CCCCCCC(CCCCCC)OC(=O)CCCCCCCCC(CCCCCCCCC(=O)OC(CCCCCC)CCCCCC)N(CCCCN(C)C)C(=O)CCOCCCC` [compound 171], the “(Spleen/Total Flux) * 100%” value is reported as 34.52%.
With `CCCCCCC(CCCCCC)OC(=O)CCCCCCCCC(CCCCCCCCC(=O)OC(CCCCCC)CCCCCC)N(CCCCN(C)C)C(=O)CCOCCCCC` [compound 172] the “(Spleen/Total Flux) * 100%” value was 11.22%.
For `CCCCCCOCCC(=O)N(CCCCN(C)C)C(CCCCCCCCC(=O)OC(CCCCCC)CCCCCC)CCCCCCCCC(=O)OC(CCCCCC)CCCCCC` [compound 173], the “(Spleen/Total Flux) * 100%” value was 38.79%.
`CCCCCCCOCCC(=O)N(CCCCN(C)C)C(CCCCCCCCC(=O)OC(CCCCCC)CCCCCC)CCCCCCCCC(=O)OC(CCCCCC)CCCCCC` [compound 174] was tested, and the “(Spleen/Total Flux) * 100%” value was 7.59%.
For `CCCCCCCCOCCC(=O)N(CCCCN(C)C)C(CCCCCCCCC(=O)OC(CCCCCC)CCCCCC)CCCCCCCCC(=O)OC(CCCCCC)CCCCCC` [compound 175], the “(Spleen/Total Flux) * 100%” value was 23.50%.
In the case of `CCCCCCC(CCCCCC)OC(=O)CCCCCCCCC(CCCCCCCCC(=O)OC(CCCCCC)CCCCCC)N(CCCCN(C)C)C(=O)CCCOCCCCC` [compound 177], the “(Spleen/Total Flux) * 100%” value is reported as 12.82%.
In the case of `CCCCCCOCCCC(=O)N(CCCCN(C)C)C(CCCCCCCCC(=O)OC(CCCCCC)CCCCCC)CCCCCCCCC(=O)OC(CCCCCC)CCCCCC` [compound 178], the “(Spleen/Total Flux) * 100%” value is reported as 5.91%.

Same assay, conditions: Fluc mRNA-LNP, tail vein IV, BALB/c mice, 6 hours; relative to Compound 118
For `CCCCCCCCOCC(=O)N(CCCCN(C)C)C(CCCCCCCCC(=O)OC(CCCCCC)CCCCCC)CCCCCCCCC(=O)OC(CCCCCC)CCCCCC` [compound 170], the “Multiple of spleen delivery/total delivery (Spleen/Total Flux) to Compound 118” value (“Multiple … (Spleen/Total Flux) to Compound 118” below) was 32.48.
In the case of `CCCCCCC(CCCCCC)OC(=O)CCCCCCCCC(CCCCCCCCC(=O)OC(CCCCCC)CCCCCC)N(CCCCN(C)C)C(=O)CCOCCCC` [compound 171], the “Multiple … (Spleen/Total Flux) to Compound 118” value is reported as 30.28.
`CCCCCCC(CCCCCC)OC(=O)CCCCCCCCC(CCCCCCCCC(=O)OC(CCCCCC)CCCCCC)N(CCCCN(C)C)C(=O)CCOCCCCC` [compound 172] was tested, and the “Multiple … (Spleen/Total Flux) to Compound 118” value was 9.84.
For `CCCCCCOCCC(=O)N(CCCCN(C)C)C(CCCCCCCCC(=O)OC(CCCCCC)CCCCCC)CCCCCCCCC(=O)OC(CCCCCC)CCCCCC` [compound 173], the “Multiple … (Spleen/Total Flux) to Compound 118” value was 34.03.
`CCCCCCCOCCC(=O)N(CCCCN(C)C)C(CCCCCCCCC(=O)OC(CCCCCC)CCCCCC)CCCCCCCCC(=O)OC(CCCCCC)CCCCCC` [compound 174] was tested, and the “Multiple … (Spleen/Total Flux) to Compound 118” value was 6.66.
In the case of `CCCCCCCCOCCC(=O)N(CCCCN(C)C)C(CCCCCCCCC(=O)OC(CCCCCC)CCCCCC)CCCCCCCCC(=O)OC(CCCCCC)CCCCCC` [compound 175], the “Multiple … (Spleen/Total Flux) to Compound 118” value is reported as 20.61.
For `CCCCCCC(CCCCCC)OC(=O)CCCCCCCCC(CCCCCCCCC(=O)OC(CCCCCC)CCCCCC)N(CCCCN(C)C)C(=O)CCCOCCCCC` [compound 177], the “Multiple … (Spleen/Total Flux) to Compound 118” value was 11.24.
With `CCCCCCOCCCC(=O)N(CCCCN(C)C)C(CCCCCCCCC(=O)OC(CCCCCC)CCCCCC)CCCCCCCCC(=O)OC(CCCCCC)CCCCCC` [compound 178] the “Multiple … (Spleen/Total Flux) to Compound 118” value was 5.19.

Reference: patent US20260015315A1, “AMINO LIPID COMPOUND, PREPARATION METHOD THEREFOR, COMPOSITION THEREOF AND APPLICATION THEREOF” (SHENZHEN SHENXIN BIOTECHNOLOGY CO., LTD., priority 2022, published 2026)
